A short description of this experiment: Binding potency against Platelet activating factor (PAF) receptor using [3H]C18-PAF as radioligand on rabbit platelet membranes.

Structures are written as SMILES.

As a reminder, the Ki is the equilibrium dissociation constant of an inhibitor or competing ligand from its target. A lower Ki goes with tighter binding.

`COC(=O)c1cccc2c1c(C(=O)c1ccc(Cn3c(C)nc4c(=O)[nH]ccc43)cc1)cn2C(=O)N(C)C` [1-Dimethylcarbamoyl-3-[4-(2-methyl-4-oxo-4,5-dihydro-imidazo[4,5-c]pyridin-1-ylmethyl)-benzoyl]-1H-indole-4-carboxylic acid methyl ester] gave an inhibition constant (Ki) of 4 nM.

Compound `C#Cc1cccc2c1c(C(O)c1ccc(Cn3c(C)nc4cnccc43)c(F)c1)cn2C(=O)N(C)C` (stereo not drawn) [4-Ethynyl-3-{[3-fluoro-4-(2-methyl-imidazo[4,5-c]pyridin-1-ylmethyl)-phenyl]-hydroxy-methyl}-indole-1-carboxylic acid dimethylamide] returned a Ki of 1.5 nM.

`Cc1nc2cnccc2n1Cc1ccc(C(=O)c2cn(C(=O)N(C)C)c3ccccc23)cc1` [3-[4-(2-Methyl-imidazo[4,5-c]pyridin-1-ylmethyl)-benzoyl]-indole-1-carboxylic acid dimethylamide] registered a Ki of 6.8 nM.

The compound `COC(=O)c1cccc2c1c(C(=O)c1ccc(Cn3c(C)nc4cnccc43)cc1)cn2S(=O)(=O)C(C)C` [3-[4-(2-Methyl-imidazo[4,5-c]pyridin-1-ylmethyl)-benzoyl]-1-(propane-2-sulfonyl)-1H-indole-4-carboxylic acid methyl ester] showed a Ki of 0.19 nM.

`Cc1nc2cnccc2n1Cc1ccc(C(=O)c2cn(C(=O)N(C)C)c3cccc(OC(=O)N(C)C)c23)cc1F` [Dimethyl-carbamic acid 1-dimethylcarbamoyl-3-[3-fluoro-4-(2-methyl-imidazo[4,5-c]pyridin-1-ylmethyl)-benzoyl]-1H-indol-4-yl ester] showed a Ki of 31 nM.

Take `COC(=O)c1cc(-c2ccc(F)cc2)cc2c1c(C(=O)c1ccc(Cn3c(C)nc4cnccc43)cc1)cn2C(=O)N(C)C` [1-Dimethylcarbamoyl-6-(4-fluoro-phenyl)-3-[4-(2-methyl-imidazo[4,5-c]pyridin-1-ylmethyl)-benzoyl]-1H-indole-4-carboxylic acid methyl ester]: the affinity, expressed as Ki, was 0.15 nM.

As for `Cc1nc2cnccc2n1Cc1cccc(C(=O)c2cn(C(=O)N(C)C)c3cc(-c4ccc(F)cc4)ccc23)c1` [6-(4-Fluoro-phenyl)-3-[3-(2-methyl-imidazo[4,5-c]pyridin-1-ylmethyl)-benzoyl]-indole-1-carboxylic acid dimethylamide], the Ki is 180 nM.

Regarding `Cc1nc2cnccc2n1Cc1ccc(C(=O)c2cn(C(=O)N(C)C)c3cccc(C(=O)O)c23)cc1` [1-Dimethylcarbamoyl-3-[4-(2-methyl-imidazo[4,5-c]pyridin-1-ylmethyl)-benzoyl]-1H-indole-4-carboxylic acid], the Ki turned out to be 14 nM.

As for `Cc1cccc2c1c(C(=O)c1ccc(Cn3c(C)nc4cnccc43)cc1)cn2C(=O)N(C)C` [4-Methyl-3-[4-(2-methyl-imidazo[4,5-c]pyridin-1-ylmethyl)-benzoyl]-indole-1-carboxylic acid dimethylamide], the Ki came to 0.82 nM.

With `COc1cccc2c1c(C(=O)c1ccc(Cn3c(C)nc4cnccc43)cc1)cn2C(=O)N(C)C` [4-Methoxy-3-[4-(2-methyl-imidazo[4,5-c]pyridin-1-ylmethyl)-benzoyl]-indole-1-carboxylic acid dimethylamide], the inhibition constant Ki came out at 2 nM.

Take `CCOC(=O)c1cccc2c1c(C(=O)c1ccc(Cn3c(C)nc4cnccc43)cc1)cn2C(=O)N(C)C` [1-Dimethylcarbamoyl-3-[4-(2-methyl-imidazo[4,5-c]pyridin-1-ylmethyl)-benzoyl]-1H-indole-4-carboxylic acid ethyl ester]: the Ki was found to be 5.2 nM.

`COC(=O)c1cccc2c1c(C(=O)c1ccc(Cn3c(C)nc4c(C)nc(C)cc43)cc1)cn2C(=O)N(C)C` [1-Dimethylcarbamoyl-3-[4-(2,4,6-trimethyl-imidazo[4,5-c]pyridin-1-ylmethyl)-benzoyl]-1H-indole-4-carboxylic acid methyl ester] returned an inhibition constant (Ki) of 120 nM.

The compound `C#Cc1cccc2[nH]cc(C(=O)c3ccc(Cn4c(C)nc5cnccc54)c(F)c3)c12` [(4-Ethynyl-1H-indol-3-yl)-[3-fluoro-4-(2-methyl-imidazo[4,5-c]pyridin-1-ylmethyl)-phenyl]-methanone] displayed a Ki of 2.2 nM.

The values are drawn from BindingDB's records for doi:10.1021/jm970389+ (Abbott Laboratories, 1998).
